Test results as given in patent US20250144067A1, “PERSONALIZED STARVATION THERAPY FOR CANCER” (Faeth Therapeutics, Inc., priority 2021, published 2025).
Where a name gives a salt, the structure may show the parent alone. Read-outs that look alike come from different tables or passages of the source. Square brackets hold non-standard residues; d marks the D form. Peptide text beside a SMILES is read from it. * marks the point of attachment. dPhe(4-NHCONH2) = NC(=O)Nc1ccc(C[C@@H](N)C(=O)O)cc1; Dihydroorotyl(S) = O=C1C[C@@H](C(=O)*)NC(=O)N1; dPhe(4-Cl) = N[C@H](Cc1ccc(Cl)cc1)C(=O)O; Phe(4-NH2) = Nc1ccc(C[C@H](N)C(=O)O)cc1; d2Nal = N[C@H](Cc1ccc2ccccc2c1)C(=O)O; Lys(iPr) = CC(C)NCCCC[C@H](N)C(=O)O; d3Pal = N[C@H](Cc1cccnc1)C(=O)O

Legend:
[1] = tested on: NCI-H292 lung cancer cells; assay: FDA drug screening, complete media vs cholesterol-free media without statin (TABLE 1); assay type: cell-based, human
[2] = tested on: NCI-H292 lung cancer cells; assay: FDA drug screening, complete media vs cholesterol-free media with simvastatin (TABLE 2); assay type: cell-based, human
[3] = Complete minus Cholesterol-free, greater than 0 enhanced anti-cancer activity, about 0 neutral, below 0 antagonists
[4] = NCI-H292 cells in cholesterol-free media without statin
[5] = NCI-H292 cells in complete media
[6] = NCI-H292 cells, cholesterol-free media with simvastatin 0.04 μM, cell growth value in FDA drug screen
[7] = NCI-H292 cells, complete media, cell growth value in FDA drug screen
[8] = complete media minus cholesterol-free media + simvastatin, >0 enhanced anti-cancer activity, about 0 neutral, <0 antagonist
[9] = NCI-H292 cells, FDA drug library screen, cholesterol-free media with simvastatin 0.04 μM
[10] = NCI-H292 cells, FDA drug library screen, complete media
[11] = complete media vs cholesterol-free media + simvastatin (0.04 μM), >0 enhanced anti-cancer activity, about 0 neutral, <0 antagonist
[12] = NCI-H292 cells, cholesterol-free media without statin
[13] = complete vs cholesterol-free media, greater than 0 enhanced anti-cancer activity, about 0 neutral, below 0 antagonists
[14] = NCI-H292 cells, cholesterol-free media with simvastatin 0.04 μM, FDA drug library screen (TABLE 2)
[15] = NCI-H292 cells, complete media, FDA drug library screen (TABLE 2)
[16] = complete media minus cholesterol-free media + simvastatin (0.04 μM), >0 enhanced anti-cancer activity, about 0 neutral, <0 antagonist
[17] = NCI-H292 cells, cholesterol-free media without statin, FDA drug library screen
[18] = NCI-H292 cells, complete media, FDA drug library screen
[19] = complete vs cholesterol-free media, >0 enhanced anti-cancer activity, about 0 neutral, <0 antagonist
[20] = Complete minus Cholesterol-free, […]
[21] = complete media minus cholesterol-free media + simvastatin, […]
[22] = NCI-H292 cells, FDA library drug in cholesterol-free media with simvastatin 0.04 μM
[23] = NCI-H292 cells, FDA library drug in complete media
[24] = complete media vs cholesterol-free media + simvastatin (0.04 μM), […]
[25] = NCI-H292 cells, FDA drug library screen, cholesterol-free media without statin
[26] = Complete minus Cholesterol-free, >0 enhanced anti-cancer activity, about 0 neutral, <0 antagonist
[27] = NCI-H292 cells, drug in cholesterol-free media with simvastatin 0.04 μM
[28] = NCI-H292 cells, drug in complete media

O=C(O)CCNC(=O)c1ccccc1 [Betamipron]
Difference [1, 3]: −1.00
Cholesterol-free [1, 4]: 1.952
Complete [1, 5]: 0.9561
Cholesterol-free media + simvastatin (0.04 μM) [2, 6]: 0.7936
Complete Media [2, 7]: 0.9075
Difference [2, 8]: 0.11

CO/N=C(\C(=O)N[C@@H]1C(=O)N2C(C(=O)O)=C(COC(C)=O)CS[C@H]12)c1csc(N)n1 [Cefotaxime]
Difference [1, 3]: −0.57
Cholesterol-free [1, 4]: 1.225
Complete [1, 5]: 0.66
Cholesterol-free media + simvastatin (0.04 μM) [2, 9]: 0.9945
Complete Media [2, 10]: 0.8998
Difference [2, 11]: −0.09

CC(C)NCC(O)COc1cccc2ccccc12 (centres unmarked) [Propranolol (hydrochloride)]
Cholesterol-free [1, 12]: 1.016
Complete ([1]; NCI-H292 cells, complete media): 0.5683
Difference [1, 13]: −0.45
Cholesterol-free media + simvastatin (0.04 μM) [2, 14]: 0.8722
Complete Media [2, 15]: 0.8715
Difference [2, 16]: 0.00

Rucaparib (phosphate)
Cholesterol-free [1, 17]: 0.6538
Complete [1, 18]: 0.9448
Difference [1, 19]: 0.29
Complete Media [2, 15]: 1.39
Difference [2, 16]: −0.02

OC(CCN1CCCCC1)(c1ccccc1)C1CC2C=CC1C2 (centres unmarked) [Biperiden (Hydrochloride)]
Cholesterol-free [1, 17]: 1.12
Complete [1, 18]: 1.311
Difference [1, 19]: 0.19
Cholesterol-free media + simvastatin (0.04 μM) [2, 9]: 0.8257
Complete Media [2, 10]: 1.742
Difference [2, 8]: 0.92

Cc1cccc(C)c1OCC(=O)N[C@@H](Cc1ccccc1)[C@@H](O)C[C@H](Cc1ccccc1)NC(=O)[C@H](C(C)C)N1CCCNC1=O [Lopinavir]
Cholesterol-free [1, 12]: 1.281
Complete ([1]; NCI-H292 cells, complete media): 0.8723
Difference [1, 13]: −0.41
Cholesterol-free media + simvastatin (0.04 μM) [2, 9]: 1.549
Complete Media [2, 10]: 1.393
Difference [2, 11]: −0.16

Medroxyprogesterone
Difference [1, 20]: −0.03
Complete [1, 18]: 0.9783
Cholesterol-free media + simvastatin (0.04 μM) [2, 9]: 0.8858
Complete Media [2, 10]: 1.173
Difference [2, 21]: 0.29

CC(C)N(CCNC(=O)CN1CCCC1=O)C(C)C [Pramiracetam]
Difference [1, 20]: −0.05
Cholesterol-free [1, 17]: 1.059
Complete [1, 18]: 1.007
Cholesterol-free media + simvastatin (0.04 μM) ([2]; NCI-H292 cells, cholesterol-free media with simvastatin 0.04 μM, […]): 0.8266
Complete Media ([2]; NCI-H292 cells, complete media, […]): 0.938
Difference [2, 21]: 0.11

COS(=O)(=O)[O-].C[N+]1(C)CCC(=C(c2ccccc2)c2ccccc2)CC1 [Diphenmanil (methylsulfate)]
Cholesterol-free [1, 17]: 0.8176
Complete [1, 18]: 0.9244
Difference ([1]; complete vs cholesterol-free media, […]): 0.11
Cholesterol-free media + simvastatin (0.04 μM) [2, 22]: 2.109
Complete Media [2, 23]: 1.508
Difference [2, 24]: −0.60

CC(=O)N[C@H](Cc1ccc2ccccc2c1)C(=O)N[C@H](Cc1ccc(Cl)cc1)C(=O)N[C@H](Cc1cccnc1)C(=O)N[C@@H](CO)C(=O)N[C@@H](Cc1ccc(NC(=O)[C@@H]2CC(=O)NC(=O)N2)cc1)C(=O)N[C@H](Cc1ccc(NC(N)=O)cc1)C(=O)N[C@@H](CC(C)C)C(=O)N[C@@H](CCCCNC(C)C)C(=O)N1CCC[C@H]1C(=O)N[C@H](C)C(N)=O [Degarelix] (Ac-[d2Nal][dPhe(4-Cl)][d3Pal]S[Phe(4-NH2)](Dihydroorotyl(S))[dPhe(4-NHCONH2)]L[Lys(iPr)]P[dA]-NH2)
Difference [1, 20]: −0.81
Cholesterol-free [1, 4]: 1.673
Complete [1, 5]: 0.859
Cholesterol-free media + simvastatin (0.04 μM) [2, 14]: 1.679
Complete Media [2, 15]: 1.609
Difference ([2]; complete media minus cholesterol-free media + simvastatin (0.04 μM), […]): −0.07

Cc1cccc(C(C)c2cnc[nH]2)c1C (centres unmarked) [Medetomidine]
Difference ([1]; Complete minus Cholesterol-free, greater than 0 enhanced anti-cancer activity, about 0 neutral, below 0 antagonist): −0.10
Cholesterol-free [1, 25]: 1.034
Complete [1, 10]: 0.9342
Cholesterol-free media + simvastatin (0.04 μM) [2, 22]: 1.094
Complete Media [2, 23]: 0.8138
Difference [2, 11]: −0.28

C[C@@H]1O[C@@H]1P(=O)(O)O [Fosfomycin (sodium)]
Difference [1, 26]: −0.22
Cholesterol-free [1, 12]: 1.096
Complete ([1]; NCI-H292 cells, complete media): 0.8782
Cholesterol-free media + simvastatin (0.04 μM) [2, 9]: 1.163
Complete Media [2, 10]: 1.004
Difference [2, 11]: −0.16

CC(C)C[C@@H](N)C(=O)N[C@H]1C(=O)N[C@@H](CC(N)=O)C(=O)N[C@H]2C(=O)N[C@H]3C(=O)N[C@H](C(=O)N[C@H](C(=O)O)c4cc(O)cc(O)c4-c4cc3ccc4O)[C@H](O)c3ccc(c(Cl)c3)Oc3cc2cc(c3O[C@@H]2O[C@H](CO)[C@@H](O)[C@H](O)[C@H]2O[C@H]2C[C@](C)(N)[C@H](O)[C@H](C)O2)Oc2ccc(cc2Cl)[C@H]1O.Cl [Norvancomycin (hydrochloride)]
Difference [1, 20]: −0.07
Cholesterol-free [1, 25]: 1.244
Cholesterol-free media + simvastatin (0.04 μM) [2, 22]: 1.335
Complete Media [2, 23]: 0.8954
Difference [2, 24]: −0.44

Cc1ccccc1-c1cc(N2CCN(C)CC2)ncc1N(C)C(=O)C(C)(C)c1cc(C(F)(F)F)cc(C(F)(F)F)c1 [Netupitant]
Cholesterol-free [1, 12]: 1.25
Complete ([1]; NCI-H292 cells, complete media): 0.915
Difference [1, 13]: −0.34
Cholesterol-free media + simvastatin (0.04 μM) [2, 6]: 0.8546
Complete Media [2, 7]: 0.9156
Difference [2, 8]: 0.06

CCCN(CCC)S(=O)(=O)c1ccc(C(=O)O)cc1 [Probenecid]
Difference [1, 26]: −0.02
Cholesterol-free [1, 17]: 0.9245
Complete [1, 18]: 0.9089
Cholesterol-free media + simvastatin (0.04 μM) [2, 27]: 1.512
Complete Media [2, 28]: 1.266
Difference [2, 11]: −0.25

CC(=O)Oc1ccccc1C(=O)Nc1ncc([N+](=O)[O-])s1 [Nitazoxanide]
Cholesterol-free [1, 17]: 1.033
Difference [1, 19]: 0.12
Cholesterol-free media + simvastatin (0.04 μM) [2, 14]: 1.209
Complete Media [2, 15]: 1.209
Difference [2, 16]: 0.00

COc1ccc(CCN(C)CCC[C@](C#N)(c2ccc(OC)c(OC)c2)C(C)C)cc1OC.Cl [(R)-Verapamil (hydrochloride)]
Difference [1, 20]: 0.02
Cholesterol-free [1, 17]: 0.8697
Complete [1, 18]: 0.8867
Cholesterol-free media + simvastatin (0.04 μM) [2, 9]: 1.005
Complete Media [2, 10]: 0.92
Difference [2, 24]: −0.08

O=C(O)Cc1ccc(-c2ccccc2)cc1 [Felbinac]
Cholesterol-free [1, 17]: 0.7335
Complete [1, 18]: 1.335
Difference [1, 19]: 0.60
Cholesterol-free media + simvastatin (0.04 μM) [2, 14]: 1.215
Complete Media [2, 15]: 1.199
Difference [2, 16]: −0.02

CCc1ccc(CCOc2ccc(CC3SC(=O)NC3=O)cc2)nc1 (centres unmarked) [Pioglitazone (hydrochloride)]
Difference [1, 26]: −0.30
Cholesterol-free [1, 12]: 1.265
Complete ([1]; NCI-H292 cells, complete media): 0.9669
Cholesterol-free media + simvastatin (0.04 μM) [2, 27]: 1.247
Complete Media [2, 28]: 1.002
Difference [2, 11]: −0.25

Cc1cn[nH]c1 [Fomepizole]
Difference [1, 26]: −0.26
Cholesterol-free [1, 12]: 1.239
Complete ([1]; NCI-H292 cells, complete media): 0.9771
Cholesterol-free media + simvastatin (0.04 μM) [2, 9]: 0.8562
Complete Media [2, 10]: 1.121
Difference [2, 8]: 0.26

CN(C)[C@@H]1C(O)=C(C(N)=O)C(=O)[C@@]2(O)C(O)=C3C(=O)c4c(O)ccc(Cl)c4[C@@](C)(O)[C@H]3C[C@@H]12 [Chlortetracycline (hydrochloride)]
Cholesterol-free [1, 12]: 1.583
Complete ([1]; NCI-H292 cells, complete media): 1.205
Difference [1, 13]: −0.38
Cholesterol-free media + simvastatin (0.04 μM) [2, 22]: 1.491
Complete Media [2, 23]: 1.106
Difference [2, 11]: −0.38

Cc1ccc(Sc2ccccc2N2CCNCC2)c(C)c1 [Vortioxetine (hydrobromide)]
Difference [1, 26]: −0.30
Cholesterol-free [1, 12]: 0.7215
Complete ([1]; NCI-H292 cells, complete media): 0.4184
Cholesterol-free media + simvastatin (0.04 μM) [2, 22]: 1.363
Complete Media [2, 23]: 1.083
Difference [2, 11]: −0.28

COc1ccc(CN2CCNCC2)c(OC)c1OC [Trimetazidine (dihydrochloride)]
Difference [1, 26]: −0.30
Cholesterol-free [1, 12]: 1.134
Complete ([1]; NCI-H292 cells, complete media): 0.836
Cholesterol-free media + simvastatin (0.04 μM) [2, 27]: 1.296
Complete Media [2, 28]: 1.112
Difference [2, 11]: −0.18

Miconazole (nitrate)
Cholesterol-free [1]: 0.9239
Complete [1]: 0.8136
Difference [1]: −0.11
Cholesterol-free media + simvastatin (0.04 μM) [2]: 0.4137
Complete Media [2]: 0.8009
Difference [2]: 0.39

CCN1CCCC1CNC(=O)c1cc(S(N)(=O)=O)ccc1OC (centres unmarked) [Sulpiride]
Difference [1, 26]: −0.22
Cholesterol-free [1, 12]: 1.254
Complete ([1]; NCI-H292 cells, complete media): 1.03
Cholesterol-free media + simvastatin (0.04 μM) [2, 14]: 1.077
Complete Media [2, 15]: 1.053
Difference [2, 16]: −0.02

Cl.Cl.NCCc1c[nH]cn1 [Histamine (dihydrochloride)]
Cholesterol-free [1]: 1.708
Complete [1]: 1.081
Difference [1]: −0.63
Cholesterol-free media + simvastatin (0.04 μM) [2]: 0.9209
Complete Media [2]: 0.9238
Difference [2]: 0.00

CN(C/C=C/c1ccccc1)Cc1cccc2ccccc12 [Naftifine (hydrochloride)]
Difference [1, 3]: −0.88
Cholesterol-free [1, 4]: 1.921
Complete [1, 5]: 1.037
Cholesterol-free media + simvastatin (0.04 μM) [2, 9]: 0.9055
Complete Media [2, 10]: 1.136
Difference [2, 8]: 0.23
